Like-named read-outs stand apart in the source and are kept apart here.
Assays:
[1] = Biodisposition of JV-DE1 and JV-MD2 delivered via NIODP (periorbital skin) in non-human primates; type: in vivo, cynomolgus monkeys; conditions: for % Administered Dose, Retina: endogenous DHA subtracted; for Cmax / concentration at 0.5 h / concentration at 24 h / concentration at 3 h / concentration at 6 h: cynomolgus monkey, topical
Method: All experiments were performed at Medicilon. […] A pen brush was used to dose each formulation with three to four circular motions for even distribution. The doses of the test articles were selected based on their solubility/concentration with the maximum deliverable volume on the periorbital skin of the animals. The administered dose was calculated by the weight difference of the pen brush before and after administration. Animals were restrained from eye rubbing in restraint chairs for 2 h after dosing, with access to food and drink. A blood sample was collected from one of the study animals at pre-dosing. For every time point of 0.5, 3, 6, and 24 h post-dose, one animal was euthanized and the ocular tissues (upper eyelid, cornea, retina, and vitreous humor) of both eyes were collected. Plasma samples were collected before each euthanization.
For the convenience of tissue processing and sample extraction, only upper eyelids were collected to represent the entirety of the periorbital tissue. Ocular tissues were homogenized by adding a 9-fold volume of 50% methanol/H2O per gram of tissue. For the LC-MS/MS sample preparation, a 50 μL aliquot of plasma, aqueous humor, vitreous humor, or tissue homogenate was thoroughly mixed with a 250 μL extraction solution of CHCl3/EtOH (1:1); then, a 210 μL supernatant of the samples was transferred to a 96-well plate after centrifugation. The samples were evaporated in nitrogen gas (N2) until dried. Each sample was redissolved in 200 μL MeOH, of which 2 µL was injected for the LC-MS/MS analysis.
The LC system was the same as that described in Section 2. The MS analysis was performed using a Triple Quad 5500 with an ESI ion source, and the data acquisition and control system were Analyst 1.6.3 software from Applied Biosystems/MDS Sciex.
The LC/MS conditions for JV-DE1 are described in Supplementary Table S2. The LC conditions were as follows: ACQUITY UPLC ® BEH C18 1.7 μm, 2.1 mm × 50 mm; the mobile phase Column A, 0.1% formic acid in water; and Column B, 0.1% formic acid in acetonitrile. The flow rate was 0.6 ml/min, the column temperature was 50 °C, and the injection volume was 2 µL. The MS conditions were as follows: scan type, positive MRM; ion source, turbo spray; ionization model, ESI; nebulizer gas 1, 55 psi; gas 2, 55 psi; curtain gas, 40 psi; CAD, 10; ionspray voltage, 5500 V; and temperature, 550 °C.
The LC/MS conditions for JV-MD2 (DHA) are described in Supplementary Table S3. The LC conditions were as follows: ACQUITY UPLC® BEH C18 1.7 μm, 2.1 mm × 50 mm; the mobile phase Column A, […] NH4AC in H2O; and Column B, CAN. The flow rate was 0.5 mL/min, the column temperature was 40 °C, and the injection volume was 4 µL. The MS conditions were as follows: scan type, negative MRM; ion source, turbo spray; ionization model, ESI; nebulizer gas 1, 55 psi; gas 2, 55 psi; curtain gas, 40 psi; CAD, 9; ionspray voltage, 5500 V; and temperature, 550 °C.

[2] = set-up: method as in PMID 32434914; conditions: dietary supplementation; mouse model with advanced AMD pathologies; cited from earlier work
[3] = JV-MD2, monkey, NIODP OS, 6568 μg/eye, 0.5 h
[4] = JV-MD2, monkey, NIODP OS, 6747 μg/eye, 24 h
[5] = JV-MD2, monkey, NIODP OS, 6768 μg/eye, 3 h
[6] = JV-MD2, monkey, NIODP OS, 7018 μg/eye, 6 h
[7] = JV-MD2, monkey, NIODP, within 30 min of dosing

CC/C=C\C/C=C\C/C=C\C/C=C\C/C=C\C/C=C\CCC(=O)O [JV-MD2, cis-4,7,10,13,16,19-docosahexaenoic acid]
concentration in vitreous humor ([1]; JV-MD2, monkey, NIODP 6775 µg/eye, all timepoints except 24 h, LLOQ 0.5 µg/mL): below BLQ | % Administered Dose, Cornea [1, 3]: 0.0283% | % Administered Dose, Eyelid/periorbital skin [1, 3]: 0.4288% | % Administered Dose, Vitreous humor [1, 3]: 0.0000% | % Administered Dose, Retina [1, 3]: 0.0343% | % Administered Dose, Cornea [1, 4]: 0.0173% | % Administered Dose, Eyelid/periorbital skin [1, 4]: 0.0197% | % Administered Dose, Vitreous humor [1, 4]: 0.0236% | % Administered Dose, Retina [1, 4]: 0.0175% | % Administered Dose, Cornea [1, 5]: 0.0109% | % Administered Dose, Eyelid/periorbital skin [1, 5]: 0.3844% | % Administered Dose, Vitreous humor [1, 5]: 0.0000% | % Administered Dose, Retina [1, 5]: 0.0264% | % Administered Dose, Cornea [1, 6]: 0.0149% | % Administered Dose, Eyelid/periorbital skin [1, 6]: 0.0149% | % Administered Dose, Vitreous humor [1, 6]: 0.0000% | % Administered Dose, Retina [1, 6]: 0.0228% | maximum percentage of the administered dose, cornea [1, 7]: 0.0283% | maximum percentage of the administered dose, eyelid/periorbital skin [1, 7]: 0.4288% | maximum percentage of the administered dose, retina [1, 7]: 0.0343% | Cmax ([1]; cornea, JV-MD2, monkey, single dose about 7 mg via NIODP, read-out: Cmax in cornea): 66000 ng/g | Cmax ([1]; retina, JV-MD2, NHP, about 7 mg/eye via NIODP, read-out: retinal Cmax): ~338 µM | Cmax ([1]; retina, JV-MD2, monkey, single dose about 7 mg (6775 µg/eye) via NIODP, endogenous level 17 µg/g, read-out: Cmax in retina): 111000 ng/g | concentration at 0.5 h ([1]; cynomolgus, cornea of the dosed left eye (OS), JV-MD2, monkey, NIODP OS, 6568 μg/eye, 0.5 h, endogenous BLQ, read-out: Drug in OS Tissues, Cornea): 66000 ng/g | concentration at 24 h ([1]; cynomolgus, cornea of the dosed left eye (OS), JV-MD2, monkey, NIODP OS, 6747 μg/eye, 24 h, endogenous BLQ, read-out: Drug in OS Tissues, Cornea): 26000 ng/g | concentration at 3 h ([1]; cynomolgus, cornea of the dosed left eye (OS), JV-MD2, monkey, NIODP OS, 6768 μg/eye, 3 h, endogenous BLQ, read-out: Drug in OS Tissues, Cornea): 22000 ng/g | concentration at 6 h ([1]; cynomolgus, cornea of the dosed left eye (OS), JV-MD2, monkey, NIODP OS, 7018 μg/eye, 6 h, endogenous BLQ, read-out: Drug in OS Tissues, Cornea): 22000 ng/g | concentration at 0.5 h ([1]; cynomolgus, plasma, JV-MD2 21.5% w/w, monkey, NIODP periorbital skin OS, 6568 μg/eye, 0.5 h, pre-dose baseline 2, read-out: Drug in plasma): 2000 ng/mL | concentration at 24 h ([1]; cynomolgus, plasma, JV-MD2 21.5% w/w, monkey, NIODP periorbital skin OS, 6747 μg/eye, 24 h, pre-dose baseline 2, read-out: Drug in plasma): 1000 ng/mL | concentration at 3 h ([1]; cynomolgus, plasma, JV-MD2 21.5% w/w, monkey, NIODP periorbital skin OS, 6768 μg/eye, 3 h, pre-dose baseline 2, read-out: Drug in plasma): 3000 ng/mL | concentration at 6 h ([1]; cynomolgus, plasma, JV-MD2 21.5% w/w, monkey, NIODP periorbital skin OS, 7018 μg/eye, 6 h, pre-dose baseline 2, read-out: Drug in plasma): 2000 ng/mL | Cmax ([1]; cynomolgus, retina, 6775 µg per eye, JV-MD2, NHP, about 7 mg/eye via NIODP, read-out: retinal Cmax): 338 µM | concentration at 0.5 h ([1]; cynomolgus, retina, JV-MD2, monkey, NIODP OS, 6568 μg/eye, 0.5 h, endogenous DHA 17 µg/g, read-out: Drug in OS Tissues, Retina): 111000 ng/g | concentration at 24 h ([1]; cynomolgus, retina, JV-MD2, monkey, NIODP OS, 6747 μg/eye, 24 h, endogenous DHA 17 µg/g, read-out: Drug in OS Tissues, Retina): 47000 ng/g | concentration at 3 h ([1]; cynomolgus, retina, JV-MD2, monkey, NIODP OS, 6768 μg/eye, 3 h, endogenous DHA 17 µg/g, read-out: Drug in OS Tissues, Retina): 67000 ng/g | concentration at 6 h ([1]; cynomolgus, retina, JV-MD2, monkey, NIODP OS, 7018 μg/eye, 6 h, endogenous DHA 17 µg/g, read-out: Drug in OS Tissues, Retina): 79000 ng/g | concentration at 0.5 h ([1]; cynomolgus, upper eyelid (periorbital skin) of the dosed left eye (OS), JV-MD2, monkey, NIODP OS, 6568 μg/eye, 0.5 h, endogenous BLQ, read-out: Drug in OS Tissues, Eyelid/periorbital skin): 381000 ng/g | concentration at 24 h ([1]; cynomolgus, upper eyelid (periorbital skin) of the dosed left eye (OS), JV-MD2, monkey, NIODP OS, 6747 μg/eye, 24 h, endogenous BLQ, read-out: Drug in OS Tissues, Eyelid/periorbital skin): 16000 ng/g | concentration at 3 h ([1]; cynomolgus, upper eyelid (periorbital skin) of the dosed left eye (OS), JV-MD2, monkey, NIODP OS, 6768 μg/eye, 3 h, endogenous BLQ, read-out: Drug in OS Tissues, Eyelid/periorbital skin): 420000 ng/g | concentration at 6 h ([1]; cynomolgus, upper eyelid (periorbital skin) of the dosed left eye (OS), JV-MD2, monkey, NIODP OS, 7018 μg/eye, 6 h, endogenous BLQ, read-out: Drug in OS Tissues, Eyelid/periorbital skin): 11000 ng/g | concentration at 24 h ([1]; cynomolgus, vitreous humor, 6775 µg per eye, JV-MD2, monkey, NIODP 6775 µg/eye, 24 h post-dose, read-out: concentration in vitreous humor): 2000 ng/mL | concentration at 0.5 h ([1]; cynomolgus, vitreous humor, JV-MD2, monkey, NIODP OS, 6568 μg/eye, 0.5 h, BLQ given a value of 0, LLOQ 0.5 µg/mL, read-out: Drug in OS Tissues, Vitreous humor): 0 ng/g | concentration at 24 h ([1]; cynomolgus, vitreous humor, JV-MD2, monkey, NIODP OS, 6747 μg/eye, 24 h, read-out: Drug in OS Tissues, Vitreous humor): 2000 ng/g | concentration at 3 h ([1]; cynomolgus, vitreous humor, JV-MD2, monkey, NIODP OS, 6768 μg/eye, 3 h, BLQ given a value of 0, LLOQ 0.5 µg/mL, read-out: Drug in OS Tissues, Vitreous humor): 0 ng/g | concentration at 6 h ([1]; cynomolgus, vitreous humor, JV-MD2, monkey, NIODP OS, 7018 μg/eye, 6 h, BLQ given a value of 0, LLOQ 0.5 µg/mL, read-out: Drug in OS Tissues, Vitreous humor): 0 ng/g | effect on AMD pathologies [2]: alleviated most pathologies

Reference: publication PMC10535219, “Discovery and Potential Utility of a Novel Non-Invasive Ocular Delivery Platform” (Pharmaceutics, 2023)
